Experimental data as given in publication PMC12514245, “Impaired migration and lung invasion of human melanoma by a novel small molecule targeting the transmembrane domain of death receptor p75^NTR” (EMBO Molecular Medicine, 2025).
Where “and” joins values, the source holds several entries; their conditions need not be identical. Identical values can stand only once. Entries after “also recorded” stand apart in the source; their conditions may differ. Like-named read-outs stand apart in the source and are kept apart here.

Key:
WM115 cells = experiment: Boyden chamber chemotaxis assay, WM115; format: cell-based, human; settings: for values normalized to vehicle, mean (Figure 6E): mean of EXP1-3; for values normalized to vehicle (Figure 6E): single experiments EXP1-3
Method: For Boyden chamber assay, Corning® BioCoat™ Matrigel® Invasion Chambers 8.0 µm PET Membrane were used (cat. no. 354480). A875 NT or WM115 cells were serum-starved for 16 h and then seeded at 60,000 cells per well in serum-free media under different conditions, including DMSO (vehicle) or small molecules Div17E5 or Np75-4A22 at different concentrations to the top chamber of the Matrigel-coated trans-well chamber. The pan-caspase inhibitor Q_VD_poH (at 5 µM) was also introduced in the top chamber in some experiments. Two different chemoattractants, NGF (at 50 ng/ml or 100 ng/ml as indicated) or 10% FBS were added to the bottom chamber. Assays were carried out for 8 h after which filters were fixed in 4% PFA and stained with DAPI. Cells that had remained on the top of the filter were gently scrapped away with a cotton tip. The filter lower side was imaged on an inverted fluorescence microscope and counted using ImageJ software (NIH).

[1] = test system: A875-shp75 melanoma xenograft; experiment: Melanoma lung invasion assay, A875-shp75, delayed treatment 3 weeks after cell injection; format: in vivo, SCID mice
Method: Finally, we investigated whether delayed administration of Np75-4A22 was able to affect engraftment and growth of metastatic tumors in the lung. To this end, drug treatment (orally at 200 mg/kg) was initiated 3 weeks after intravenous injection of A875-NT or A875-shp75 cells in female SCID mice and continued for additionally 4 weekly cycles (5 days on/2 days off) as above (Fig. 8E). Metastatic spread to the lungs was monitored weekly by bioluminescent imaging of luciferase-expressing melanoma cells. […] We conclude that Np75-4A22 can be efficacious at reducing the spread and seeding of melanoma cells in the lung when administered either before or after cell implantation.
(§1) Eight-week-old female SCID mice (Charles River Laboratories, Shrewsbury, MA, USA) were housed in groups of three to five and maintained on a 12-h light/dark schedule with a temperature of 22 °C ± 1 °C and a relative humidity of 50% ± 5%. Food and water were available ad libitum. This research study was reviewed and approved by the University of Calgary Animal Care Committee (AC22-0054) and McGill University (AUP-JGH-8269) and adheres to established ethical principles and guidelines. A875-GFPLuc (A875-NT) or A875-GFPLuc shp75 (A875-shp75) cells harvested using Puck’s EDTA were resuspended in PBS and injected intravenously into SCID mice (5 × 10^5 cells/200 μl per mouse). Np75-4A22 was dissolved in 0.5% sodium carboxymethyl cellulose (NaCMC) in reverse osmosis H2O and administered by oral gavage at 200 mg/kg/day starting one day prior to intravenous (tail vein) injection of tumor cells and continued for 3 1-week cycles (cycle: 5 days on drug, 2 days off drug). Tumor spread to the lung was monitored weekly by luciferase activity using the Xenogen IVIS-200 Optical in vivo luciferase imaging system as described previously (Lun et al, [2016]) and by immunohistochemistry (IHC) at designated time points. IHC was performed after formalin fixation, paraffin embedding and sectioning of the lungs, using a human-specific mouse polyclonal nucleolin antibody (1:500 dilution) and detected using Dako liquid DAB+ Substrate Chromogen System (Dako: k3468, California, USA) followed by a hematoxylin counterstain (Sigma, Oakville, ON, Canada). Sections were mounted and imaged on an Olympus phase contrast microscope (Olympus Life Science, Tokyo, Japan). For immunofluorescence, sections were stained with anti-human nucleolin and anti-human p75NTR antibodies (1:1000 dilution), subsequently detected with 1:200 dilutions of Alexa Fluor™ 488 Goat anti-Mouse IgG (H + L) Highly Cross-Adsorbed Secondary Antibody and Alexa Fluor™ 568 Goat anti-Rabbit IgG (H + L) Cross-Adsorbed Secondary Antibody. Sections were further stained with DAPI to detect all nuclei. Between each treatment, TBS Automation Wash Buffer (Biocare Medical TWB945M) was employed. Images were taken with LSM800 confocal microscope and ZEN system.

[2] = test system: A875-shp75 melanoma xenograft; experiment: Melanoma lung invasion assay, A875-shp75, treatment from one day before cell injection; format: in vivo, SCID mice
Method: Next, to assess the potential inhibitory effects of Np75-4A22 on melanoma cell migration and tissue invasion in vivo, we utilized the highly metastatic human A875 xenograft model. […] Initially, to mimic metastatic dissemination from the primary tumor site, A875-NT or A875-shp75 cells expressing GFP-Luc (for live-monitoring of tumor growth) were injected intravenously in female SCID mice 24 h following a single oral administration of Np75-A422 (200 mg/kg) or drug vehicle alone. Mice received 3 cycles of Np75-A422 (200 mg/kg/day) following a 5 day on and 2 days off drug schedule for a total of 3 weeks (Fig. 8A). Metastatic spread to the lungs was monitored weekly by luciferase activity using the Xenogen IVIS-200 Optical in vivo luciferase imaging system and mice were sacrificed after the third week. […] In addition, assessment of the metastatic spread was also quantified by histological assessment of non-consecutive lung sections stained for human nucleolin to detect the tumor cells. […] In addition, and as expected, high expression of p75^NTR was detected in lung tumors established by A875-NT cells but was negligible in tumors derived from A875-shp75 cells (Fig. EV10).
as §1

[3] = Plasma pharmacokinetics in mice; format: in vivo, C57BL/6 mice; settings: for Cmax: read-out: C0/Cmax; for Vd: read-out: Vss
[4] = C57BL/6, mouse, IV 3 mg/kg, female, plasma
[5] = C57BL/6, mouse, IV 3 mg/kg, male, plasma
[6] = C57BL/6, mouse, PO 10 mg/kg, female, plasma
[7] = C57BL/6, mouse, PO 10 mg/kg, male, plasma

Cc1cccc(-c2cncc(Nc3ccc(Br)c(Cl)c3Cl)n2)c1C [Np75-4A22]
values normalized to vehicle, mean (Figure 6E) (WM115 cells; 100 ng/ml NGF & 1 uM 4A22): 1.0063 | values normalized to vehicle (Figure 6E) (WM115 cells; 100 ng/ml NGF & 1 uM 4A22): 0.9175 and 0.9379 and 1.163 | spontaneous migration of WM115 cells (WM115 cells; 1μM): without affecting the spontaneous migration | values normalized to vehicle, mean (Figure 6E) (WM115 cells; 1 uM 4A22): 0.8431 | values normalized to vehicle (Figure 6E) (WM115 cells; 1 uM 4A22): 0.9343 and 0.8878 and 0.7073 | NGF-induced migration of WM115 cells (WM115 cells; 1 μM, NGF 100 ng/ml): blocked this activity | Average Photons/second/week, wk2 ([1]; group average, wk2): 9.88E+04 Photons/second | Average Photons/second/week, wk3 ([1]; group average, wk3): 1.46E+05 Photons/second | Average Photons/second/week, wk4 ([1]; group average, wk4): 1.10E+05 Photons/second | Average Photons/second/week, wk5 ([1]; group average, wk5): 2.77E+05 Photons/second | Average Photons/second/week, wk6 ([1]; group average, wk6): 4.60E+05 Photons/second | Average Photons/second/week, wk7 ([1]; group average, wk7): 1.10E+06 Photons/second | Photons/second/ mouse/week, wk2 ([1]; individual mouse, wk2): 1.05E+05 Photons/second and 6.22E+04 Photons/second and 8.27E+04 Photons/second and 9.38E+04 Photons/second and 1.02E+05 Photons/second and 8.99E+04 Photons/second and 1.49E+05 Photons/second and 1.09E+05 Photons/second and 9.56E+04 Photons/second | Photons/second/ mouse/week, wk3 ([1]; individual mouse, wk3): 1.10E+05 Photons/second and 1.18E+05 Photons/second and 1.42E+05 Photons/second and 1.47E+05 Photons/second and 1.39E+05 Photons/second and 1.86E+05 Photons/second and 1.67E+05 Photons/second and 1.65E+05 Photons/second and 1.36E+05 Photons/second | Photons/second/ mouse/week, wk4 ([1]; individual mouse, wk4): 1.43E+05 Photons/second and 9.53E+04 Photons/second and 1.42E+05 Photons/second and 1.00E+05 Photons/second and 1.24E+05 Photons/second and 1.66E+05 Photons/second and 4.36E+04 Photons/second and 7.52E+04 Photons/second and 1.02E+05 Photons/second | Photons/second/ mouse/week, wk5 ([1]; individual mouse, wk5): 1.26E+05 Photons/second and 1.70E+05 Photons/second and 1.58E+05 Photons/second and 1.31E+05 Photons/second and 1.75E+05 Photons/second and 1.89E+05 Photons/second and 1.28E+05 Photons/second and 4.29E+05 Photons/second and 9.90E+05 Photons/second | Photons/second/ mouse/week, wk6 ([1]; individual mouse, wk6): 2.09E+05 Photons/second and 1.96E+05 Photons/second and 2.02E+05 Photons/second and 2.61E+05 Photons/second and 6.18E+04 Photons/second and 1.19E+05 Photons/second and 3.83E+05 Photons/second and 2.25E+06 Photons/second | Photons/second/ mouse/week, wk7 ([1]; individual mouse, wk7): 1.96E+05 Photons/second and 1.65E+05 Photons/second and 3.28E+05 Photons/second and 1.98E+06 Photons/second and 3.78E+06 Photons/second | Metastatic Nodules/Lung Section, Average ([2]; A875-shp75, average of 5 non-consecutive slides per individual mouse): 1.2 and 0.8 and 0.4 and 0.2 and 1.8 and 0.6 and 10.6 | Cancer Cells/Lung Section, Average per mouse ([2]; A875-shp75, average of 5 slides of one mouse): 7 and 6 and 2.8 and 3.2 and 3.6 and 25.6 and 1.6 and 13 and 132.2 | Cancer Cells/Lung Section, group Average ([2]; A875-shp75, average of all mice): 21.6667 | Metastatic Nodules/Lung Section, group Average ([2]; A875-shp75, average over all mice of the group): 1.8 | Metastatic Nodules/Lung Section, Slide 1 ([2]; A875-shp75, individual mouse, slide 1 of 5 non-consecutive slides/mouse): 2 and 1 and 0 and 6 | Metastatic Nodules/Lung Section, Slide 2 ([2]; A875-shp75, individual mouse, slide 2 of 5 non-consecutive slides/mouse): 2 and 0 and 1 and 3 and 14 | Metastatic Nodules/Lung Section, Slide 3 ([2]; A875-shp75, individual mouse, slide 3 of 5 non-consecutive slides/mouse): 1 and 0 and 2 and 18 | Metastatic Nodules/Lung Section, Slide 4 ([2]; A875-shp75, individual mouse, slide 4 of 5 non-consecutive slides/mouse): 1 and 0 and 2 and 12 | Metastatic Nodules/Lung Section, Slide 5 ([2]; A875-shp75, individual mouse, slide 5 of 5 non-consecutive slides/mouse): 0 and 1 and 3 | p75NTR-negative lung tumors ([2]; oral 200 mg/kg/day, 3 weeks): not significantly affected | AUC(0-t) [3, 4]: 1670 ng·h/mL | Cmax ([3]; C57BL/6, mouse, IV 3 mg/kg, female, plasma, back extrapolated): 3400 ng/mL | clearance ([3]; C57BL/6, mouse, IV 3 mg/kg, female, plasma, read-out: CL): 29.5 mL/min/kg | half-life ([3]; C57BL/6, mouse, IV 3 mg/kg, female, plasma, read-out: T1/2 (converted)): 8.64 h | Vd [3, 4]: 3.23 L/kg | AUC(0-t) [3, 5]: 2070 ng·h/mL | Cmax ([3]; C57BL/6, mouse, IV 3 mg/kg, male, plasma, back extrapolated): 4710 ng/mL | clearance ([3]; C57BL/6, mouse, IV 3 mg/kg, male, plasma, read-out: CL): 23.9 mL/min/kg | half-life ([3]; C57BL/6, mouse, IV 3 mg/kg, male, plasma, read-out: T1/2 (converted)): 7.45 h | Vd [3, 5]: 2.09 L/kg | AUC(0-t) [3, 6]: 2680 ng·h/mL | Tmax [3, 6]: 0.5 h | bioavailability [3, 6]: 48% | Cmax [3, 6]: 1030 ng/mL | AUC(0-t) [3, 7]: 4730 ng·h/mL | Tmax [3, 7]: 0.5 h | bioavailability [3, 7]: 69% | Cmax [3, 7]: 1310 ng/mL | clearance ([3]; i.v. 3 mg/kg, male and female): low clearance | half-life ([3]; i.v. 3 mg/kg, male and female): long half-life | absorption ([3]; oral 10 mg/kg, male and female): rapid absorption | oral bioavailability ([3]; oral 10 mg/kg, male and female, 10 mg/kg): good oral bioavailability; also recorded: high oral bioavailability
